For 8 compounds, TGI and GI50 results are on record in PubChem BioAssay (NCI).

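Briefly, cells in 96-well plates were exposed to five compound concentrations for 48 h, and endpoints were estimated by linear interpolation. Here, GI50 denotes the concentration required for 50% inhibition of growth. TGI: concentration producing complete growth inhibition.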 Where only a bound is given, the exact number is not on record here.

Among the test systems are BT-549 breast; OVCAR-5 ovarian; SK-MEL-28 melanoma; EKVX NSCLC; MDA-MB-435; HOP-62 NSCLC; HS 578T breast; RPMI-8226 leukemia; A549 NSCLC; HL-60(TB) leukemia.
Common to all, as to assay: NCI anticancer screen, dose series, 48 h

In the case of `O=C(c1ccccc1)C1C(C(=O)c2ccccc2)N1Cc1ccccc1` (stereo not drawn), the TGI in the experiment with BT-549 breast was 72 µM; in the experiment on OVCAR-5 ovarian, more than 100 µM; in the experiment with SK-MEL-28 melanoma, more than 100 µM; with EKVX NSCLC it was more than 100 µM; with MDA-MB-435, 68.3 µM; with HOP-62 NSCLC, more than 100 µM. The TGI in the experiment on HS 578T breast, with RPMI-8226 leukemia and in the experiment on A549 NSCLC was more than 100 µM throughout.
As for `Cn1c2ccccc2c(=Nc2ccccc2)c2c3ccccc3[nH]c21`, the GI50 in the experiment with BT-549 breast was 3.15 µM; in the experiment with OVCAR-5 ovarian it was 7.6 µM; in the experiment on SK-MEL-28 melanoma it was 2.3 µM; with EKVX NSCLC, 3.21 µM; with MDA-MB-435 it was 1.84 µM; in the experiment with HOP-62 NSCLC, 1.14 µM. The GI50 is 1.46 µM with HS 578T breast and 1.08 µM with RPMI-8226 leukemia. Besides, the TGI in the experiment on BT-549 breast worked out at 7.13 µM; with OVCAR-5 ovarian it was 59.9 µM; in the experiment on SK-MEL-28 melanoma, 6.17 µM; with EKVX NSCLC, 8.63 µM; with MDA-MB-435, 3.32 µM; with HOP-62 NSCLC, 2.42 µM. Moreover, the values for the TGI with HS 578T breast and in the experiment with RPMI-8226 leukemia were 4.58 µM and 2.56 µM, respectively.
Take `CCN(CC)CCN1C(=O)c2c(c(C)c3c(oc4cc(O)ccc43)c2C)C1=O`: the GI50 with BT-549 breast is 1.67 µM; in the experiment on OVCAR-5 ovarian, 1.66 µM; with SK-MEL-28 melanoma it was 1.58 µM; with EKVX NSCLC, 1.69 µM; in the experiment with MDA-MB-435, 1.57 µM; with HOP-62 NSCLC, 2.06 µM. Besides, the values for the GI50 with RPMI-8226 leukemia and in the experiment with A549 NSCLC were 1.77 µM and 2.05 µM, respectively. The TGI in the experiment on BT-549 breast worked out at 3.19 µM; in the experiment on OVCAR-5 ovarian, 3.04 µM; in the experiment with SK-MEL-28 melanoma, 3.03 µM; in the experiment with EKVX NSCLC, 3.3 µM; in the experiment on MDA-MB-435, 3.08 µM; in the experiment on HOP-62 NSCLC it was 4.84 µM. The TGI is 4.76 µM in the experiment on RPMI-8226 leukemia and 4.68 µM in the experiment with A549 NSCLC.
As for `S=c1nc[nH]c2c1ncn2Cc1ccco1`, the TGI in the experiment with BT-549 breast, in the experiment on OVCAR-5 ovarian, in the experiment on SK-MEL-28 melanoma, in the experiment with EKVX NSCLC, with MDA-MB-435 and in the experiment with HOP-62 NSCLC was more than 100 µM throughout. Also, the TGI in the experiment with HS 578T breast, with RPMI-8226 leukemia and in the experiment with A549 NSCLC was more than 100 µM throughout.
With `COc1ccc(/C=C/c2c(C(=O)/C=C/c3ccc(Cl)cc3)c(C)nc3ccccc23)cc1`, the GI50 is 1.83 µM in the experiment with BT-549 breast; 2.08 µM in the experiment on OVCAR-5 ovarian; 2.15 µM with HL-60(TB) leukemia; 1.81 µM with SK-MEL-28 melanoma; 1.55 µM with EKVX NSCLC; 2.12 µM in the experiment on MDA-MB-435. Also, the values for the GI50 with HOP-62 NSCLC, with RPMI-8226 leukemia and in the experiment with A549 NSCLC were 2.12 µM, 1.91 µM and 2.69 µM, respectively. Further, the TGI in the experiment with BT-549 breast came out at 3.8 µM; in the experiment on OVCAR-5 ovarian it was 4.98 µM; with HL-60(TB) leukemia, 5.62 µM; with SK-MEL-28 melanoma it was 3.42 µM; with EKVX NSCLC it was 3.49 µM; with MDA-MB-435, 4.67 µM. The TGI in the experiment on HOP-62 NSCLC was 4.83 µM; in the experiment with RPMI-8226 leukemia, 6.77 µM; in the experiment with A549 NSCLC, 9.6 µM.
Take `O=NC1c2cccc3cccc(c23)C1N=O` (stereo not drawn): the TGI with BT-549 breast is 15.6 µM; in the experiment on OVCAR-5 ovarian, 9.11 µM; in the experiment with HL-60(TB) leukemia it was 6.61 µM; in the experiment with EKVX NSCLC it was 6.76 µM; in the experiment on MDA-MB-435, 25.7 µM; in the experiment on HOP-62 NSCLC, 19.5 µM. For the same compound, the values for the TGI in the experiment on HS 578T breast, in the experiment on RPMI-8226 leukemia and in the experiment on A549 NSCLC were 75.7 µM, 39.9 µM and 17 µM, respectively.
Take `O=c1[nH]cc(CS(=O)(=O)Cc2c[nH]c(=O)[nH]c2=O)c(=O)[nH]1`: the TGI in the experiment on BT-549 breast, in the experiment with OVCAR-5 ovarian, in the experiment on SK-MEL-28 melanoma, with EKVX NSCLC, with MDA-MB-435 and in the experiment on HS 578T breast was more than 100 µM each time. For the same compound, the TGI with RPMI-8226 leukemia and with A549 NSCLC was more than 100 µM in each case.
With `O=C1c2ccccc2C(=O)c2c1ccc(C(Br)Br)c2[N+](=O)[O-]`, the GI50 with BT-549 breast was 2.51 µM; in the experiment with OVCAR-5 ovarian it was 1.72 µM; in the experiment on HL-60(TB) leukemia, 1.87 µM; in the experiment with SK-MEL-28 melanoma it was 2.63 µM; with EKVX NSCLC, 1.96 µM; in the experiment on MDA-MB-435 it was 1.76 µM. Further, the GI50 in the experiment on HOP-62 NSCLC was 1.42 µM; in the experiment on HS 578T breast, 2.28 µM; with A549 NSCLC, 17.6 µM. For the same compound, the TGI with BT-549 breast was found to be 8.3 µM; in the experiment on OVCAR-5 ovarian, 4.4 µM; in the experiment with HL-60(TB) leukemia it was 4.22 µM; in the experiment with SK-MEL-28 melanoma it was 6.56 µM; in the experiment with EKVX NSCLC it was 4.58 µM; with MDA-MB-435 it was 3.29 µM. Besides, the TGI with HOP-62 NSCLC came to 2.99 µM; with HS 578T breast it was 6.75 µM; with A549 NSCLC, 33.6 µM.
